Holding throughout (assay type): cell-based, mouse
Assay [1] concerns microglia. Nature of the assay: AβO-induced microglia proliferation/activation (cell number). The note with it: for microglia cell counts, % of solvent-treated controls: mean±S.E.
Assay [2] relates to p38MAPK. Nature of the assay: p38MAPK phosphorylation in microglia (Western blot). The note with it: AβO, 30 minutes. The procedure: Primary microglia cultures derived from newborn C57BL/6J mice were prepared from mixed glia cultures with the “shaking off” method described by Maezawa, I., et al.; (2006) FASEB J 20, 797-799. […] To obtain conditioned medium (CM) for treating neurons, microglia were first cultured in 24-well culture plates at a density of 1.3×10^5 cells/cm^2 for 24 hrs in DMEM with 10% fetal bovine serum (DMEM10). Cultures were washed extensively and changed to the Neurobasal medium with B27 supplement (NB/B27, Invitrogen) without serum and cultured for another 24 hrs. The NB/B27-based microglia CMs were collected, briefly centrifuged, and used immediately or frozen for future uses.
(§1) To obtain lysates, cells or tissues were washed with ice-cold PBS and incubated with a buffer containing 50 mmol/L Tris-HCl (pH 7.4), 150 mmol/L NaCl, 2% SDS, proteinase inhibitor cocktail (Sigma), and phosphatase inhibitor cocktail (Sigma). Lysates were briefly sonncated and cleared by centrifugation at 50,000 rpm for 10 min. Equivalent amounts of protein were analyzed by Tris/HCL gel electrophoresis. Proteins were transferred to polyvinylidene difluoride membranes and probed with antibodies. Visualization was performed using enhanced chemiluminescence (ECL, Amersham Pharmacia, Piscataway, N.J.).
The following primary antibodies (dilutions) were used: anti-p38MAPK (1:1000, Cell Signaling Technology, Boston, Mass.), anti-phospho-p38MAPK (1:1000, Cell Signaling Technology), anti-Synaptophysin (1:1000, Abcam), anti-PSD95 (1:1000, cell signaling), anti-GRIP 1 (1:1000, UpState), anti-MAP2 (1:1000, Chemicon), anti-acetylated α-tubulin (1:2000, Zymed), and anti-β-actin (1:3000, Sigma). Secondary antibodies were HRP-conjugated anti-rabbit, anti-goat, or anti-mouse antibody (1:3000 Amersham).
For orientation: A western blot detects proteins with antibodies after separation by electrophoresis.

Assay [3] relates to NFκB. Nature of the assay: NFκB assay in microglia. Conditions: AβO, 2 hrs. Here is the method:
The detection of cells with active NFκB was performed according to the method described by Franciosi, S., et al.; (2006) J Neurosci 26, 11652-11664. Briefly, microglia were plated as described above and treated with activators for 2 hrs. Cells were fixed and stained with anti-NF-κBp65 antibody (1:250, Chemicon) and with the nuclear dye DAPI.

For assay [4], the system named is microglia. Nature of the assay: Assay for nitric oxide (nitrite) in microglia conditioned medium. Conditions: for AβO-induced increase of microglia NO production: 5 μM 1400 W, 100 μM L-NIL, FIG. 8A.
For assay [5], the system named is hippocampal neurons. Nature of the assay: Viability of cultured hippocampal neurons, direct AβO. Conditions: direct addition.
The test system of assay [6] is hippocampal neurons. Nature of the assay: Indirect neurotoxicity of conditioned medium from AβO-treated microglia on hippocampal neurons. Conditions: microglia co-treated 24 hrs with 1400 W or L-NIL; 25% CM; FIG. 8B.
Method: Hippocampal neuronal cultures were prepared from newborn wild type C57BL/6J mice according to the method of Xiang et al (26). Neurons were cultured in NB/B27 at a density of 2.5×10^5 cells/well in 12-well plates or 8×10^5 cells/well in 6-well plates for at least 14 days before they were treated with microglia CM.
Hippocampal neurons were prepared as described above and were plated onto 96-well plate at a density of 6×10^4 cells/well and cultured for 14 days. CM from microglia cultures was added onto neurons with indicated dilutions, and cultures were incubated for 24 hrs.
For immunofluorescent staining of neurons, cultures were fixed in 4% paraformaldehyde and stained with anti-PSD95 (1:200, Cell Signaling), anti-MAP2 (1:500, Chemicon) and anti-acetylated α-tubulin (1:250, Zymed). […] Immunostained images were observed under a Nikon Eclipse E600 microscope and photographed by a digital camera (SPOT RTke, SPOT Diagnostics, Sterling Heights, Mich.).
For quantification of the PSD95-immunoreactive puncta along the dendrites, photomicrographs of PSD95 immunostained cultures were randomly taken from each culture condition. The images were transformed to 8 bit gray scale and analyzed with the Image J program. The number of puncta in each photomicrograph was counted and normalized by dendritic length. The photography and analysis were conducted in an investigator-blinded manner
In assay [7] the test system is hippocampal slices. Nature of the assay: AβO-treated organotypic hippocampal slice cultures. Conditions: iNOS inhibitors applied 1 hr prior to AβO; for AβO-induced NO production by hippocampal slices: FIG. 8C; for AβO-induced neuronal damage (PI uptake) in hippocampal slices: FIG. 8D. Here is the method:
Hippocampal slice cultures (400 μm-thick) were prepared from 7-day-old C57BL/6J mice as previously described (25) and cultured for 10 days in vitro before use. Neuronal damage in the slices was monitored by PI uptake following Bernardino et al (27). PI itself is not toxic to neurons (27). […] After 24 hrs, the slices were observed under a Nikon Eclipse E600 microscope and the red (630 nm) fluorescence emitted by PI taken up by damaged cells was photographed by a digital camera (SPOT RTke, SPOT Diagnostics, Sterling Heights, Mich.) with fixed exposure time.
For immunofluorescent staining of neurons, cultures were fixed in 4% paraformaldehyde and stained with anti-PSD95 (1:200, Cell Signaling), anti-MAP2 (1:500, Chemicon) and anti-acetylated α-tubulin (1:250, Zymed). For immunofluorescent staining of microglia, cultures or hippocampal slices were fixed in 4% paraformaldehyde and stained with anti-IBA1 (1:500, Wako Chemicals USA), anti-SRA (E-20, 1:200, Santa Cruz Biotechnology), and anti-CD11b (1:200, AbD Serotec USA, Raleigh, N.C.). The fixed cells or hippocampal slices were incubated with antibodies for overnight at 4° C. followed by secondary Alexa488 conjugated anti-mouse or Alexa568 conjugated anti-rabbit antibody (1:700, Molecular probes). Immunostained images were observed under a Nikon Eclipse E600 microscope and photographed by a digital camera (SPOT RTke, SPOT Diagnostics, Sterling Heights, Mich.).
as §1
Conditioned medium collected from microglia cultures (1×10^5/0.75 cm^2) and hippocampal slices treated with Aβ for 24 hrs were analyzed by the Nitric Oxide Quantization Kit according to the protocol of the manufacturer (Active Motif, Carlsbad, Calif.). Data were normalized to the amount of total protein.

Regarding `Nc1c(/N=N/c2ccc(-c3ccc(/N=N/c4cc(S(=O)(=O)O)c5ccccc5c4N)cc3)cc2)cc(S(=O)(=O)O)c2ccccc12` [Congo red, reference compound], the “AβO mitogenic effect on microglia (cell numbers)” value in assay [1] (20 nM AβO, 24 hrs, A11 50 nM, CR 100 nM, FIG. 1D) is reported as “blocked”. Further, the “microglia activation / mitogenic effect induced by human brain AβO” value in assay [1] (soluble AD hippocampus extracts) was “blocked”.
As to “AβO: synthetic Aβ42 peptide oligomers, microglia activator”, in assay [1], the “AβO concentration at which microglia proliferation maximizes” value is recorded as “around 50 nM” and the “AβO concentration at which microglia proliferation starts” value worked out at 5 nM. Further, the “microglia cell counts, % of solvent-treated controls” value in assay [1] (20 nM AβO, 24 hr) is listed as 184±8.59%. In addition, in assay [1] (20 nM AβO, 48 hr), the “microglia cell counts, % of solvent-treated controls” value came to 330±21.8%. In addition, in assay [2], the “phosphorylated p38MAPK, % of vehicle treatment control” value is listed as 225±38%. Moreover, the “increase of cells with active NFκB immunoreactivity” value in assay [3] is listed as “six-fold increase”. Besides, the “increase of NO release per cell” value in assay [4] (AβO 24 hr, normalized to total cellular protein) was roughly 80%. Besides, the “AβO concentrations affecting viability of cultured hippocampal neurons” value in assay [5] is listed as “above 100 nM”.
With `CC(=N)NCCCC[C@H](N)C(=O)O` [L-NIL, N-iminoethyl-Llysine, reference compound], the “AβO-induced increase of microglia NO production” value in assay [4] is “prevented”. The “AβO-induced microglial neurotoxicity (neuronal viability)” value in assay [6] was “blocked”. In assay [7], the “AβO-induced NO production by hippocampal slices” value was “blocked” and the “AβO-induced neuronal damage (PI uptake) in hippocampal slices” value is listed as “blocked”.
Consider `CC(=N)NCc1cccc(CN)c1` [1400 W, N-[(3-aminomethyl)benzyl]acetamidine, reference compound], for which the “AβO-induced increase of microglia NO production” value in assay [4] is given as “prevented”. In assay [6], the “AβO-induced microglial neurotoxicity (neuronal viability)” value is “blocked”. Also, in assay [7], the “AβO-induced NO production by hippocampal slices” value is reported as “blocked” and the “AβO-induced neuronal damage (PI uptake) in hippocampal slices” value is on record as “blocked”.
For the molecule “polyinosinic acid [poly I, reference compound]”, the “AβO-induced microglia activation / proliferation” value in assay [1] (20 nM AβO 24 hrs, 100 ng/ml poly I, 10 μg/ml E-20, 20 μM doxycycline, 1 μM TRAM-34, FIG. 3) is “blocked”.

(Values after US20130281504A1, “Reduction of Microglia-Mediated Neurotoxicity by KCa3.1 Inhibition” (THE REGENTS OF THE UNIVERSITY OF CALIFORNIA, priority 2010, published 2013).)
